Key:
HDAC1 = HDAC1 (Homo sapiens (Human), UniProt Q13547); assay: HDAC1 enzymatic assay; assay type: biochemical; conditions: read-out: Human HDAC1 IC50
Outline: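 Compound inhibition of human HDAC1 (0.5 ng enzyme, 10 uM substrate) was assessed by fluorescence after developer treatment, excitation 360 nm and emission 460 nm. Percent activity was normalized to no-compound (100%) and no-enzyme (0%) controls, plotted against concentration, and fitted to a sigmoidal dose-response curve in Graphpad Prism to obtain IC50 at half-maximal activity.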

HDAC6 = HDAC6 (Homo sapiens (Human), UniProt Q9UBN7); assay: HDAC6 enzymatic assay; assay type: biochemical; conditions: read-out: Human HDAC6 IC50
Outline: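 Following a 17 hour room-temperature incubation of 2 ng HDAC6 with 10 uM substrate and compound, 50 μl developer was added for another 20 minutes, and fluorescence (excitation 360 nm, emission 460 nm) was recorded. Activity was normalized to no-compound (100%) and no-enzyme (0%) wells, and IC50 came from sigmoidal dose-response fitting in Graphpad Prism.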

Chain of HDAC1 (Q13547 whole entry): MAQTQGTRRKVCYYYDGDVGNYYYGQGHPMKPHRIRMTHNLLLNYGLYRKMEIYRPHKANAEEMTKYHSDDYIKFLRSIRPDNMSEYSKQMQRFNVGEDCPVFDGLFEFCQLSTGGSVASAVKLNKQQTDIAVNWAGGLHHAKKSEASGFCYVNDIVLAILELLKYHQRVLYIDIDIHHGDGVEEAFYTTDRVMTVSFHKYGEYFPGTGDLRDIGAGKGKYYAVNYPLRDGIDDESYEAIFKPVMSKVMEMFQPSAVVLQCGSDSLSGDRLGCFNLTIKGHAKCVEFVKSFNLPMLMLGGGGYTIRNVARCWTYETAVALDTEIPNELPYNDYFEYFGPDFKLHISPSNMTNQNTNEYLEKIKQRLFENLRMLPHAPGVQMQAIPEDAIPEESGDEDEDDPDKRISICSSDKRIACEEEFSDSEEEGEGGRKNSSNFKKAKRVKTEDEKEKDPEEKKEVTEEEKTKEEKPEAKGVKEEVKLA
Chain of HDAC6 (Q9UBN7 whole entry): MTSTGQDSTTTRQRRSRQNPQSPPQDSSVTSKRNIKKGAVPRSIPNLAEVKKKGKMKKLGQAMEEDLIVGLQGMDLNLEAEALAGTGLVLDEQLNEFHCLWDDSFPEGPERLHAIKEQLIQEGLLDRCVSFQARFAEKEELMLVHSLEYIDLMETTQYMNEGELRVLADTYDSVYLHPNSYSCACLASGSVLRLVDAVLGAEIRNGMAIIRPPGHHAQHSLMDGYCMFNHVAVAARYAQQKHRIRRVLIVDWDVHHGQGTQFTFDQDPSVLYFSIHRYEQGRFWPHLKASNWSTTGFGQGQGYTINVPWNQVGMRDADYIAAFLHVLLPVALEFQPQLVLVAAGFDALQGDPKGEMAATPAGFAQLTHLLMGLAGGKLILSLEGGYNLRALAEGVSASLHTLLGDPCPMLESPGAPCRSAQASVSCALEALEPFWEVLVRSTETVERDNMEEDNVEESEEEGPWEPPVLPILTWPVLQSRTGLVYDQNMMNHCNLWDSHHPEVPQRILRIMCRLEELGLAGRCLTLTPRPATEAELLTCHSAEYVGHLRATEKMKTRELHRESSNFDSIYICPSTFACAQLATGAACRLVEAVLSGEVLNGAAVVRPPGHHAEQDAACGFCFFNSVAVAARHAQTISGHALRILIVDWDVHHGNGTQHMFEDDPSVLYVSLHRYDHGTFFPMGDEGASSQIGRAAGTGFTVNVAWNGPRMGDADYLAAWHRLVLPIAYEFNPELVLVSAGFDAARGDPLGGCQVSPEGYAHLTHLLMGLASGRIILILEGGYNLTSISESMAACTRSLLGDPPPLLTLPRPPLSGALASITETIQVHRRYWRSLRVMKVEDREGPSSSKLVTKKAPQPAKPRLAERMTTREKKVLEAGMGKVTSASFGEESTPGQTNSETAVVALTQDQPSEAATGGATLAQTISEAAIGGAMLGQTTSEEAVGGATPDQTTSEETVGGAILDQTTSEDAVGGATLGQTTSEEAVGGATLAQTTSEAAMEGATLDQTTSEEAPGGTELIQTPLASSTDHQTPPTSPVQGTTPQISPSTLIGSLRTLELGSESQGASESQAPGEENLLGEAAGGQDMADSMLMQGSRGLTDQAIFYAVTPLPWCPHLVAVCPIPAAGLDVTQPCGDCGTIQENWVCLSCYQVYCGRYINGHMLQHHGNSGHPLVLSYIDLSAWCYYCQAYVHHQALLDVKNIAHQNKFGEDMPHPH

FC(F)(F)c1nnc(-c2cnc(NC3(c4ccccc4)CC3)nc2)o1 [Example 1, N-(1-phenylcyclopropyl)-5-(5-(trifluoromethyl)-1,3,4-oxadiazol-2-yl) pyrimidin-2-amine]
IC50 (HDAC1): > 30000 nM
IC50 (HDAC6): 210 nM

FC(F)c1nnc(-c2cnc(NC3(c4ccc(Cl)cc4)CC3)nc2)o1 [Example 50, N-(1-(4-chlorophenyl)cyclopropyl)-5-(5-(difluoromethyl)-1,3,4-oxadiazol-2-yl)pyrimidin-2-amine]
IC50 (HDAC1): > 30000 nM
IC50 (HDAC6): 30 nM

CN(CC(Nc1ncc(-c2nnc(C(F)F)o2)cn1)c1ccc(OC(F)(F)F)cc1)S(C)(=O)=O (stereo not drawn) [153(+), N-(2-((5-(5-(difluoromethyl)-1,3,4-oxadiazol-2-yl)pyrimidin-2-yl)amino)-2-(4-(trifluoromethoxy)phenyl)ethyl)-N-methylmethanesulfonamide]
IC50 (HDAC1): > 30000 nM
IC50 (HDAC6): 20 nM

FC(F)c1nnc(-c2cnc(NC3(c4ccccc4OC(F)(F)F)CC3)nc2)o1 [Example 55, 5-(5-(difluoromethyl)-1,3,4-oxadiazol-2-yl)-N-(1-(2-(trifluoromethoxy)phenyl)cyclopropyl) pyrimidin-2-amine]
IC50 (HDAC1): > 30000 nM
IC50 (HDAC6): 20 nM

O=C1CCCN1CC(Nc1ncc(-c2nnc(C(F)F)o2)cn1)c1ccc(F)cc1 (single isomer, unassigned) [177(−), 1-(2-((5-(5-(difluoromethyl)-1,3,4-oxadiazol-2-yl)pyrimidin-2-yl)amino)-2-(4-fluorophenyl)ethyl)pyrrolidin-2-one]
IC50 (HDAC1): > 30000 nM
IC50 (HDAC6): 76 nM

FC(F)c1nnc(-c2cnc(NC3(c4ccc(Br)nc4)CC3)nc2)o1 [Example 64, N-(1-(6-bromopyridin-3-yl)cyclopropyl)-5-(5-(difluoromethyl)-1,3,4-oxadiazol-2-yl)pyrimidin-2-amine]
IC50 (HDAC1): > 30000 nM
IC50 (HDAC6): 28 nM

O=S(=O)(NCC(Nc1ncc(-c2nnc(C(F)F)o2)cn1)c1ccc(OC(F)(F)F)cc1)C1CC1 (stereo not drawn) [158(+), N-(2-((5-(5-(difluoromethyl)-1,3,4-oxadiazol-2-yl)pyrimidin-2-yl)amino)-2-(4-(trifluoromethoxy)phenyl)ethyl)cyclopropanesulfonamide]
IC50 (HDAC1): > 30000 nM
IC50 (HDAC6): 51 nM

CS(=O)(=O)Nc1cccc(C(Nc2ncc(-c3nnc(C(F)F)o3)cn2)c2ccc(F)cc2)c1 (centres unmarked) [Example 128, N-(3-(((5-(5-(difluoromethyl)-1,3,4-oxadiazol-2-yl)pyrimidin-2-yl)amino)(4-fluorophenyl)methyl)phenyl)methanesulfonamide]
IC50 (HDAC1): > 30000 nM
IC50 (HDAC6): 130 nM

CCS(=O)(=O)N(CC(Nc1ncc(-c2nnc(C(F)F)o2)cn1)c1ccc(F)cc1)CC(F)(F)F (single isomer, unassigned) [164(−), N-(2-((5-(5-(difluoromethyl)-1,3,4-oxadiazol-2-yl)pyrimidin-2-yl)amino)-2-(4-fluorophenyl)ethyl)-N-(2,2,2-trifluoroethyl)ethanesulfonamide]
IC50 (HDAC1): > 30000 nM
IC50 (HDAC6): 230 nM

Fc1cc(F)c(C2(Nc3ncc(-c4nnc(C(F)F)o4)cn3)CC2)c(F)c1 [Example 74, 5-(5-(difluoromethyl)-1,3,4-oxadiazol-2-yl)-N-(1-(2,4,6-trifluorophenyl)cyclopropyl) pyrimidin-2-amine]
IC50 (HDAC1): > 30000 nM
IC50 (HDAC6): 19 nM

CS(=O)(=O)CC(Nc1ncc(-c2nnc(C(F)F)o2)cn1)c1ccc(F)cc1 (single isomer, unassigned) [161(−), 5-(5-(difluoromethyl)-1,3,4-oxadiazol-2-yl)-N-(1-(4-fluorophenyl)-2-(methylsulfonyl)ethyl)pyrimidin-2-amine]
IC50 (HDAC1): > 30000 nM
IC50 (HDAC6): 870 nM

CC(=O)N(CC(Nc1ncc(-c2nnc(C(F)F)o2)cn1)c1ccc(F)cc1)CC(F)(F)F (single isomer, unassigned) [167(+), N-(2-((5-(5-(difluoromethyl)-1,3,4-oxadiazol-2-yl)pyrimidin-2-yl)amino)-2-(4-fluorophenyl)ethyl)-N-(2,2,2-trifluoroethyl)acetamide]
IC50 (HDAC1): > 30000 nM
IC50 (HDAC6): 110 nM

Fc1ccc(C(Nc2ncc(-c3nnc(C(F)F)o3)cn2)C(F)(F)F)cc1 (centres unmarked) [Example 15, 5-(5-(difluoromethyl)-1,3,4-oxadiazol-2-yl)-N-(2,2,2-trifluoro-1-(4-fluorophenyl)ethyl)pyrimidin-2-amine]
IC50 (HDAC1): > 30000 nM
IC50 (HDAC6): 74 nM

Fc1cccc(C2(Nc3ncc(-c4nnc(C(F)F)o4)cn3)CC2)c1F [Example 60, 5-(5-(difluoromethyl)-1,3,4-oxadiazol-2-yl)-N-(1-(2,3-difluorophenyl)cyclopropyl) pyrimidin-2-amine]
IC50 (HDAC1): > 30000 nM
IC50 (HDAC6): 22 nM

Fc1ccc(C(Nc2ncc(-c3nnc(C(F)F)o3)cn2)C2CC2)cc1 (centres unmarked) [Example 36, N-(cyclopropyl(4-fluorophenyl)methyl)-5-(5-(difluoromethyl)-1,3,4-oxadiazol-2-yl)pyrimidin-2-amine]
IC50 (HDAC1): > 30000 nM
IC50 (HDAC6): 64 nM

O=C(NCC(Nc1ncc(-c2nnc(C(F)F)o2)cn1)c1ccc(F)cc1)C1CC1 (single isomer, unassigned) [168(−), N-(2-((5-(5-(difluoromethyl)-1,3,4-oxadiazol-2-yl)pyrimidin-2-yl)amino)-2-(4-fluorophenyl)ethyl)cyclopropanecarboxamide]
IC50 (HDAC1): > 30000 nM
IC50 (HDAC6): 750 nM

CC(=O)N(C)CC(Nc1ncc(-c2nnc(C(F)F)o2)cn1)c1ccc(F)cc1 (single isomer, unassigned) [166(−), N-(2-((5-(5-(difluoromethyl)-1,3,4-oxadiazol-2-yl)pyrimidin-2-yl)amino)-2-(4-fluorophenyl)ethyl)-N-methylacetamide]
IC50 (HDAC1): > 30000 nM
IC50 (HDAC6): 360 nM

CS(=O)(=O)NCCC(Nc1ncc(-c2nnc(C(F)F)o2)cn1)c1ccc(F)cc1 (centres unmarked) [Example 125, N-(3-((5-(5-(difluoromethyl)-1,3,4-oxadiazol-2-yl)pyrimidin-2-yl)amino)-3-(4-fluorophenyl)propyl)methanesulfonamide]
IC50 (HDAC1): > 30000 nM
IC50 (HDAC6): 26 nM

CS(=O)(=O)Nc1ccc(C(Nc2ncc(-c3nnc(C(F)F)o3)cn2)c2ccc(F)cc2)cc1 (centres unmarked) [Example 129, N-(4-(((5-(5-(difluoromethyl)-1,3,4-oxadiazol-2-yl)pyrimidin-2-yl)amino)(4-fluorophenyl)methyl)phenyl)methanesulfonamide]
IC50 (HDAC1): > 30000 nM
IC50 (HDAC6): 250 nM

CS(=O)(=O)N(CC(Nc1ncc(-c2nnc(C(F)F)o2)cn1)c1ccc(Cl)cc1)CC(F)(F)F (single isomer, unassigned) [174(+), N-(2-(4-chlorophenyl)-2-((5-(5-(difluoromethyl)-1,3,4-oxadiazol-2-yl)pyrimidin-2-yl)amino)ethyl)-N-(2,2,2-trifluoroethyl)methanesulfonamide]
IC50 (HDAC1): > 30000 nM
IC50 (HDAC6): 170 nM

Fc1ccc2c(c1)CCCC2Nc1ncc(-c2nnc(C(F)F)o2)cn1 (centres unmarked) [Example 34, 5-(5-(difluoromethyl)-1,3,4-oxadiazol-2-yl)-N-(6-fluoro-1,2,3,4-tetrahydronaphthalen-1-yl)pyrimidin-2-amine]
IC50 (HDAC1): > 30000 nM
IC50 (HDAC6): 790 nM

O=C(C(Nc1ncc(-c2nnc(C(F)F)o2)cn1)c1ccc(F)cc1)N1CCOCC1 (centres unmarked) [Example 30, 2-((5-(5-(difluoromethyl)-1,3,4-oxadiazol-2-yl)pyrimidin-2-yl)amino)-2-(4-fluorophenyl)-1-morpholinoethan-1-one]
IC50 (HDAC1): > 30000 nM
IC50 (HDAC6): 770 nM

CC(O)C(Nc1ncc(-c2nnc(C(F)F)o2)cn1)c1ccc(F)cc1F (centres unmarked) [Example 93, 1-((5-(5-(difluoromethyl)-1,3,4-oxadiazol-2-yl)pyrimidin-2-yl)amino)-1-(2,4-difluorophenyl)propan-2-ol]
IC50 (HDAC1): > 30000 nM
IC50 (HDAC6): 43 nM

CS(=O)(=O)NCc1ccc(C2(Nc3ncc(-c4nnc(C(F)F)o4)cn3)CC2)cc1 [Example 69, N-(4-(1-((5-(5-(difluoromethyl)-1,3,4-oxadiazol-2-yl)pyrimidin-2-yl)amino)cyclopropyl)benzyl) methanesulfonamide]
IC50 (HDAC1): > 30000 nM
IC50 (HDAC6): 130 nM

Fc1ccc(C(COCC(F)(F)F)Nc2ncc(-c3nnc(C(F)F)o3)cn2)c(F)c1 (single isomer, unassigned) [163(+), 5-(5-(difluoromethyl)-1,3,4-oxadiazol-2-yl)-N-(1-(2,4-difluorophenyl)-2-(2,2,2-trifluoroethoxy)ethyl)pyrimidin-2-amine]
IC50 (HDAC1): > 30000 nM
IC50 (HDAC6): 110 nM

CN(CC(Nc1ncc(-c2nnc(C(F)F)o2)cn1)c1ccc(F)cc1)C(=O)C1CC1 (single isomer, unassigned) [169(−), N-(2-((5-(5-(difluoromethyl)-1,3,4-oxadiazol-2-yl)pyrimidin-2-yl)amino)-2-(4-fluorophenyl)ethyl)-N-methylcyclopropanecarboxamide]
IC50 (HDAC1): > 30000 nM
IC50 (HDAC6): 1100 nM

Fc1c(Cl)cccc1C1(Nc2ncc(-c3nnc(C(F)F)o3)cn2)CC1 [Example 73, N-(1-(3-chloro-2-fluorophenyl)cyclopropyl)-5-(5-(difluoromethyl)-1,3,4-oxadiazol-2-yl)pyrimidin-2-amine]
IC50 (HDAC1): > 30000 nM
IC50 (HDAC6): 17 nM

Fc1cc(C(F)(F)F)ccc1C1(Nc2ncc(-c3nnc(C(F)F)o3)cn2)CC1 [Example 71, 5-(5-(difluoromethyl)-1,3,4-oxadiazol-2-yl)-N-(1-(2-fluoro-4-(trifluoromethyl)phenyl)cyclopropyl)pyrimidin-2-amine]
IC50 (HDAC1): > 30000 nM
IC50 (HDAC6): 100 nM
